Results published in patent US20250289793A1, “MACROCYCLIC INHIBITORS OF ATP CITRATE LYASE” (Esperion Therapeutics, Inc., priority 2022, published 2025).

Experiments:
[1] = target: T1, ACLY (Homo sapiens (Human), UniProt P53396); test: InCell Pulse assay (permeate HEK293 cells, bind to and stabilize ACLY); format: cell-based; conditions: HEK293 cells transfected with pICP-ACLY(FL)-ePL; 1 hour at 37° C., 55° C. heat pulse 10 minutes; read-out: InCell Pulse IC50 GMean
Procedure: HEK293 cells transfected for 24 hours with pICP-ACLY(FL)-ePL (3 μg DNA per T25 flask) using FuGene HD (Promega Corp.) were harvested and cryopreserved. On the day of the assay, the frozen transfected cells were thawed at 37° C., and the storage medium (DMEM with 2 mM L-Glutamine, 10% FBS and a final concentration of DMSO 10%) was exchanged with assay medium (OptiMEM; Gibco™, ThermoFischer Scientific). Compounds were 3-fold serially diluted in DMSO over 11-point concentration range. 100 nL of the corresponding dilutions were spotted into the assay plate (Greiner AG; 384 Well, PP, Small Volume, Deep Well, Natural, cat. no. 784201) followed by the addition of 20 μL of cell suspension adjusted with assay medium to 7.5E4 cells/mL. Subsequently, the plates were sealed and incubated for 1 hour at 37° C. Afterwards, the plates were fixed upside down in a rack and incubated in a 55° C. water bath for 10 minutes. Following this heat pulse step, plates were allowed to reach room temperature for 10 minutes and centrifuged for a few seconds at 1000 rpm and room temperature. 25 μL EA detection solution (working solution: 0.0167× InCell EA Reagent, 0.15× InCell Dilution Buffer, 0.167× InCell Lysis Buffer; 0.667× InCell Substrate Reagent; InCell Hunter Detection kit; Eurofins DiscoverX; cat. no. 96-0079) were added to each well. Afterwards, 42 μL were transferred from the assay plate to the detection plate (Corning Inc., 384-well Low Flange Black Flat Bottom Polystyrene NBS Microplate, cat. no. 3575), followed by an incubation for 1 hour at room temperature, a centrifugation step for 1 minute at 1000 rpm and the detection of the luminescence signal using an EnVision microplate reader (Perkin Elmer Inc.). Concentration-response curve-fitting and IC50 determination was performed using Evotec's in-house evaluation software APlus with a four-parameter non-linear regression fit model. Data was normalized to 0.5% (final concentration) DMSO as low/negative control and 1 μM (final concentration) NDI-094311 as high/positive control.

[2] = target: T1, ACLY; test: Human ACLY (hACLY) RF/MS activity assay; format: biochemical; conditions: 1 nM hACLY; 30 min pre-incubation; 15 μM Coenzyme A, 50 μM ATP, 50 μM citrate; CoA to Acetyl-CoA by RF/MS; read-out: RFMS IC50 GMean
Procedure: Compounds of the disclosure were evaluated for their efficacy in inhibiting hACLY using rapid fire mass spectrometry (RF/MS).
The final reaction volume for each compound was 20 μl and consisted of buffer (50 mM Hepes pH 8.0, 10 mM MgCl2, 0.003% BSA, 0.01% Brij35, 50 mM NaCl, 4 mM DTT) and 1 nM hACLY, EV12992, PP6692) using Greiner, 384 well small volume, deep well plates (Cat #784201). A two-fold dilution series with a top concentration of 10 μM was used to record a concentration response curve. Both the substrate (CoA) and product (Acetyl-CoA) were quantified, and given a ratio. […] The final DMSO-concentration was 1% (v/v). Compounds were pre-incubated for 30 min with the buffered enzyme solution at RT (20° C.), and substrate solution was added (final concentrations: 15 μM Coenzyme A, 50 μM ATP and 50 μM citrate) to initiate the enzyme reaction. The enzyme reaction was incubated for additional 30 min at RT. The reaction was quenched upon addition of 40 μl of 5% Formic acid in H2O and centrifuged (4350 rpm at 20° C. for 10 min).
Product formation was quantified using a RF/MS-based method based on mass change of CoA (substrate) to Acetyl-CoA (product).

T1 sequence (P53396 whole entry): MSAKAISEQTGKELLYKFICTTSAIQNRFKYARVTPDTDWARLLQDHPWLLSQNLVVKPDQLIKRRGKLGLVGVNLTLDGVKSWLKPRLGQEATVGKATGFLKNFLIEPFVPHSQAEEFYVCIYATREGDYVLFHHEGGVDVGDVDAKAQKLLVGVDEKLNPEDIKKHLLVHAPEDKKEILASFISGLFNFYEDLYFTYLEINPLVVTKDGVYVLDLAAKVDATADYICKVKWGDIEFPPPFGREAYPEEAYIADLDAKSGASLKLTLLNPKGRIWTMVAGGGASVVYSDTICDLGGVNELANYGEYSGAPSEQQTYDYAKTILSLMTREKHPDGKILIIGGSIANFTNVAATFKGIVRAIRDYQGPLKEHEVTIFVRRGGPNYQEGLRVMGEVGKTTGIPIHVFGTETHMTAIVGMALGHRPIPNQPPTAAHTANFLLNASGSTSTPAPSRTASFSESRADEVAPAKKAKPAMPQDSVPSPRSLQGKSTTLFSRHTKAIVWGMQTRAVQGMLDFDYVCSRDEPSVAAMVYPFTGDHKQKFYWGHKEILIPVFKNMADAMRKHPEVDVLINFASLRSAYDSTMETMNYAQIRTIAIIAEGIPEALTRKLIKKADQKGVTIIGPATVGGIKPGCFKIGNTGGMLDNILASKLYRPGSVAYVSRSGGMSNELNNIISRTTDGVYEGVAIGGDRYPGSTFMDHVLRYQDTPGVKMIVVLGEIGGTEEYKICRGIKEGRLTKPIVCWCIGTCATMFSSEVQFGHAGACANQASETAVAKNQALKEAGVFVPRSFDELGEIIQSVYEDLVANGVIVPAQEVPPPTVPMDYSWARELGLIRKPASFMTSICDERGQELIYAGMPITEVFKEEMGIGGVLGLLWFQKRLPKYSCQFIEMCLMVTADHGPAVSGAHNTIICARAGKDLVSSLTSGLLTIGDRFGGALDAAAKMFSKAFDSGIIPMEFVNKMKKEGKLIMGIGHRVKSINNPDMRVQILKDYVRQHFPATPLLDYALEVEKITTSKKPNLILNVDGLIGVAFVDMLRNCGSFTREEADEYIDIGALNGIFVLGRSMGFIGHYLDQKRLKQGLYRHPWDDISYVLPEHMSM

IC50 [1] [nM]	IC50 [2] [nM]	SMILES
< 300	< 20	O=C1OCCOc2ccccc2-c2cc(F)c(F)c(c2)NS(=O)(=O)c2cc1cc(Cl)c2O [Compound 54, 15-chloro-21,22-difluoro-16-hydroxy-18,18-dioxo-8,11-dioxa-18λ6-thia-19-azatetracyclo[18.3.1.113,17.02,7]pentacosa-1(23),2(7),3,5,13(25),14,16,20(24),21-nonaen-12-one]
1000 to 50000	20 to 100	O=C1OCCOc2ccccc2-c2ccc(C3CC3)c(c2)NS(=O)(=O)c2cc1cc(Cl)c2O [Compound 57, 15-chloro-21-cyclopropyl-16-hydroxy-18,18-dioxo-8,11-dioxa-18λ6-thia-19-azatetracyclo[18.3.1.113,17.02,7]pentacosa-1(23),2(7),3,5,13(25),14,16,20(24),21-nonaen-12-one]
≥ 50000	≥ 10000	O=C1OCCOc2ccccc2-c2cc(c(F)cc2F)NS(=O)(=O)c2cc1cc(Cl)n2 [Compound 61, 15-chloro-21,23-difluoro-18,18-dioxo-8,11-dioxa-18λ6-thia-16,19-diazatetracyclo[18.3.1.113,17.02,7]pentacosa-1(24),2,4,6,13,15,17(25),20,22-nonaen-12-one]
≥ 50000	≥ 10000	Cc1cc2cc(n1)S(=O)(=O)Nc1cc(c(F)cc1F)-c1ccccc1OCCOC2=O [Compound 62, 21,23-difluoro-15-methyl-18,18-dioxo-8,11-dioxa-18λ6-thia-16,19-diazatetracyclo[18.3.1.113,17.02,7]pentacosa-1(24),2,4,6,13,15,17(25),20,22-nonaen-12-one]
< 300	< 20	O=C1OCCc2ccccc2-c2ccc(F)c(c2)NS(=O)(=O)c2cc1cc(Cl)c2O [Compound 72, 14-chloro-20-fluoro-15-hydroxy-17,17-dioxo-10-oxa-17λ6-thia-18-azatetracyclo[17.3.1.112,16.02,7]tetracosa-1(22),2(7),3,5,12,14,16(24),19(23),20-nonaen-11-one]
< 300	20 to 100	O=C1OCCc2cc(F)ccc2-c2ccc(F)c(c2)NS(=O)(=O)c2cc1cc(Cl)c2O [Compound 73, 14-chloro-5,20-difluoro-15-hydroxy-17,17-dioxo-10-oxa-17λ6-thia-18-azatetracyclo[17.3.1.112,16.02,7]tetracosa-1(22),2(7),3,5,12,14,16(24),19(23),20-nonaen-11-one]

The remaining lines, values behind:

SMILES	IC50 [1] [nM]	IC50 [2] [nM]
O=C1OCCOc2cc3cn[nH]c3cc2-c2cc(c(F)cc2F)NS(=O)(=O)c2cc1cc(Cl)c2O [Compound 53, 18-chloro-24,26-difluoro-19-hydroxy-21,21-dioxo-11,14-dioxa-21λ6-thia-5,6,22-triazapentacyclo[21.3.1.116,20.02,10.04,8]octacosa-1(27),2(10),3,6,8,16(28),17,19,23,25-decaen-15-one]	≥ 50000	100 to 10000
O=C1OCCOc2ccccc2-c2ccc(OC(F)F)c(c2)NS(=O)(=O)c2cc1cc(Cl)c2O [Compound 55, 15-chloro-21-(difluoromethoxy)-16-hydroxy-18,18-dioxo-8,11-dioxa-18λ6-thia-19-azatetracyclo[18.3.1.113,17.02,7]pentacosa-1(23),2(7),3,5,13(25),14,16,20(24),21-nonaen-12-one]	300 to 1000	< 20
O=C1OCCOc2ccccc2-c2ccc(C(F)(F)F)c(c2)NS(=O)(=O)c2cc1cc(Cl)c2O [Compound 58, 15-chloro-16-hydroxy-18,18-dioxo-21-(trifluoromethyl)-8,11-dioxa-18λ6-thia-19-azatetracyclo[18.3.1.113,17.02,7]pentacosa-1(24),2(7),3,5,13(25),14,16,20,22-nonaen-12-one]	< 300	20 to 100
O=C1OCCOc2ccccc2-c2cc(c(F)cc2F)NS(=O)(=O)c2cc1ccc2C(F)F [Compound 60, 16-(difluoromethyl)-21,23-difluoro-18,18-dioxo-8,11-dioxa-18λ6-thia-19-azatetracyclo[18.3.1.113,17.02,7]pentacosa-1(23),2(7),3,5,13(25),14,16,20(24),21-nonaen-12-one]	≥ 50000	≥ 10000
Nc1cc2cc(n1)S(=O)(=O)Nc1cc(c(F)cc1F)-c1ccccc1OCCOC2=O [Compound 63, 15-amino-21,23-difluoro-18,18-dioxo-8,11-dioxa-18λ6-thia-16,19-diazatetracyclo[18.3.1.113,17.02,7]pentacosa-1(23),2(7),3,5,13,15,17(25),20(24),21-nonaen-12-one]	≥ 50000	≥ 10000
O=C1OCCOc2ccccc2-c2cc(c(F)cc2F)NS(=O)(=O)c2cc(O)cc1c2 [Compound 65, 21,23-difluoro-15-hydroxy-18,18-dioxo-8,11-dioxa-18λ6-thia-19-azatetracyclo[18.3.1.113,17.02,7]pentacosa-1(24),2,4,6,13,15,17(25),20,22-nonaen-12-one]	≥ 50000	≥ 10000
O=S1(=O)Nc2cc(c(F)cc2F)-c2ccccc2OCCOCc2cc(Cl)c(O)c1c2 [Compound 67, 15-chloro-21,23-difluoro-18,18-dioxo-8,11-dioxa-18λ6-thia-19-azatetracyclo[18.3.1.113,17.02,7]pentacosa-1(23),2(7),3,5,13,15,17(25),20(24),21-nonaen-16-ol]	300 to 1000	< 20
O=C1Cc2cc(Cl)c(O)c(c2)S(=O)(=O)Nc2cc(c(F)cc2F)-c2ccccc2CO1 [Compound 68, 14-chloro-20,22-difluoro-15-hydroxy-17,17-dioxo-9-oxa-17λ6-thia-18-azatetracyclo[17.3.1.112,16.02,7]tetracosa-1(22),2(7),3,5,12(24),13,15,19(23),20-nonaen-10-one]	< 300	< 20
O=S1(=O)Nc2cc(ccc2F)-c2ccccc2CCOCc2cc(Cl)c(O)c1c2 [Compound 69, 14-chloro-20-fluoro-17,17-dioxo-10-oxa-17λ6-thia-18-azatetracyclo[17.3.1.112,16.02,7]tetracosa-1(23),2,4,6,12,14,16(24),19,21-nonaen-15-ol]	< 300	100 to 10000
O=C1OCC[C@H]2CCCN2c2ccc(F)c(c2)NS(=O)(=O)c2cc1cc(Cl)c2O [Compound 70, (6R)-13-chloro-19-fluoro-14-hydroxy-16,16-dioxo-9-oxa-16%6-thia-2,17-diazatetracyclo[16.3.1.111,15.02,6]tricosa-1(21),11(23),12,14,18(22),19-hexaen-10-one]	≥ 50000	20 to 100
CN1CCc2ccccc2-c2cc(c(F)cc2F)NS(=O)(=O)c2cc(cc(Cl)c2O)C1=O [Compound 71, 14-chloro-20,22-difluoro-15-hydroxy-10-methyl-17,17-dioxo-17λ6-thia-10,18-diazatetracyclo[17.3.1.112,16.02,7]tetracosa-1(22),2(7),3,5,12,14,16(24),19(23),20-nonaen-11-one]	≥ 50000	< 20
O=C1OCCc2ccc(F)cc2-c2ccc(F)c(c2)NS(=O)(=O)c2cc1cc(Cl)c2O [Compound 74, 14-chloro-4,20-difluoro-15-hydroxy-17,17-dioxo-10-oxa-17λ6-thia-18-azatetracyclo[17.3.1.112,16.02,7]tetracosa-1(22),2(7),3,5,12(24),13,15,19(23),20-nonaen-11-one]	< 300	20 to 100
Cc1cc2cc(c1O)S(=O)(=O)Nc1cc(c(F)cc1F)-c1ccccc1CCOC2=O [Compound 75, 20,22-difluoro-15-hydroxy-14-methyl-17,17-dioxo-10-oxa-17λ6-thia-18-azatetracyclo[17.3.1.112,16.02,7]tetracosa-1(23),2,4,6,12,14,16(24),19,21-nonaen-11-one]	300 to 1000	100 to 10000
